pIC50: −log10 of the molar value.
System: 324938-238-R-J1-PDC complex spheroid viability
Test: Anticancer human tumor 324938-238-R-J1-PDC patient-derived bladder carcinoma cell line growth inhibition
Conditions: for pIC50: curve of first compound; for viability, T/C: stronger effect = lower value
Summary of the method: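 Drug combinations with the LSD1 inhibitor iadademstat tested on tumor cells co-cultured as spheroids with endothelial cells and mesenchymal stem cells. Concentrations descended in half-log increments from clinical Cmax or 10 microM.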
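Also: spheroids also contain HUVEC and human MSCs and agents combined with iadademstat; spheroids exposed to agents for 7 days before readout.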

## NS(=O)(=O)OCC1CC(n2ccc3c(NC4CCc5ccccc54)ncnc32)CC1O (stereo not given) + NC1CCC(NC2CC2c2ccccc2)CC1
Second compound 0.1 µM
  pIC50: 6.47
Second compound 0.316 µM
  pIC50: 6.47
Second compound 1 µM
  pIC50: 6.41
Second compound 3.16 µM
  pIC50: 6.51
Second compound 10 µM
  pIC50: 6.49
Second compound 0.1 µM, first compound 0.00949 µM
  viability, T/C: 81.7%
Second compound 0.1 µM, first compound 0.03 µM
  viability, T/C: 78.5%
Second compound 0.1 µM, first compound 0.0949 µM
  viability, T/C: 84.7%
Second compound 0.1 µM, first compound 0.3 µM
  viability, T/C: 54.2%
Second compound 0.1 µM, first compound 0.949 µM
  viability, T/C: 11.7%
Second compound 0.1 µM, first compound 3 µM
  viability, T/C: 11.9%
Second compound 0.316 µM, first compound 0.00949 µM
  viability, T/C: 86.5%
Second compound 0.316 µM, first compound 0.03 µM
  viability, T/C: 88.1%
Second compound 0.316 µM, first compound 0.0949 µM
  viability, T/C: 79.9%
Second compound 0.316 µM, first compound 0.3 µM
  viability, T/C: 54.7%
Second compound 0.316 µM, first compound 0.949 µM
  viability, T/C: 14.3%
Second compound 0.316 µM, first compound 3 µM
  viability, T/C: 11.5%
Second compound 1 µM, first compound 0.00949 µM
  viability, T/C: 79.2%
Second compound 1 µM, first compound 0.03 µM
  viability, T/C: 84.3%
Second compound 1 µM, first compound 0.0949 µM
  viability, T/C: 82.4%
Second compound 1 µM, first compound 0.3 µM
  viability, T/C: 60.1%
Second compound 1 µM, first compound 0.949 µM
  viability, T/C: 15.7%
Second compound 1 µM, first compound 3 µM
  viability, T/C: 15.9%
Second compound 3.16 µM, first compound 0.00949 µM
  viability, T/C: 77.6%
Second compound 3.16 µM, first compound 0.03 µM
  viability, T/C: 74.5%
Second compound 3.16 µM, first compound 0.0949 µM
  viability, T/C: 83.3%
Second compound 3.16 µM, first compound 0.3 µM
  viability, T/C: 50.9%
Second compound 3.16 µM, first compound 0.949 µM
  viability, T/C: 15.5%
Second compound 3.16 µM, first compound 3 µM
  viability, T/C: 15.8%
Second compound 10 µM, first compound 0.00949 µM
  viability, T/C: 86.3%
Second compound 10 µM, first compound 0.03 µM
  viability, T/C: 72.8%
Second compound 10 µM, first compound 0.0949 µM
  viability, T/C: 79.9%
Second compound 10 µM, first compound 0.3 µM
  viability, T/C: 52.2%
Second compound 10 µM, first compound 0.949 µM
  viability, T/C: 16.3%
Second compound 10 µM, first compound 3 µM
  viability, T/C: 13.3%
